Reference: US11534443B2, “Quinazoline compounds, preparation method, use, and pharmaceutical composition thereof” (INSTITUTE OF MATERIA MEDICA, CHINESE ACADEMY OF MEDICAL …, priority 2016, dated 2022)

How the values were obtained:
[1] = test system: human lung cancer cell NCI-H460; experiment: Tumor cell viability by MTT assay; format: cell-based; details: Homo sapiens, NCI-H460, 96 h
Summary of the method: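 NCI-H460 cells exposed to six to nine compound concentrations (DMSO below 0.2%, triplicate wells) for 96 hours at 37° C, 5% CO2. MTT added for 4 hours, formazan dissolved in DMSO and OD read at 570 nm against DMSO-treated controls.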

PI3Kα = PI3Kα (Homo sapiens (Human), UniProt P42336); experiment: Biochemical evaluation of activity of PI3Kα (Kinase-Glo luminescence kinase assay); details: 25 μM ATP, 50 μM PIP2, 1 h at room temperature
Summary of the method: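 Inhibition of PI3Kα was measured in vitro with a luciferase-based Kinase-Glo™ luminescence readout in white 384-well plates at room temperature. Compound diluted 25-fold in buffer (50 mM Hepes pH 7.5, 3 mM MgCl2, 100 mM NaCl, 1 mM EGTA, 0.03% CHAPS, 2 mM DTT) was mixed with enzyme, then PIP2/ATP substrate was added. Percent inhibition used enzyme-free and DMSO controls; IC50 was fitted with XLfit.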

[2] = test system: human lung cancer NCI-H460 subcutaneous xenografts; experiment: Xenograft efficacy in nude mice, NCI-H460; format: in vivo; details: for Growth inhibition: NCI-H460 xenograft, 16 days of dosing
Experimental: (§1) Human lung cancer NCI-H460 cells were collected under aseptic conditions, and the cell density was adjusted to 1×10^6 cells/mL with sterile saline, 0.2 mL of which was implanted into the back of the nude mice. When the tumor grew to a diameter of about 1 cm, it was removed under septic condition and cut into pieces of 1 mm×1 mm which was implanted into the back of the nude mice. When the tumor grew to 100-300 mm^3 after 6 days, the animals were randomly divided into groups and administration was started (marked as Day 1). The test compound was administered orally every day. Body weight was measured twice a week and the length and width of the tumor were measured with a vernier caliper. After 16 days of dosing, the nude mice were sacrificed by cervical dislocation and the tumor issues were exfoliated, weighed and photographed. Finally, the tumor inhibitory rate was calculated. The antitumor efficacy was evaluated by the tumor inhibitory rate. The results were shown in Table 3, Table 4, FIG. 1 and FIG. 2.
(§2) The tumor volume was calculated as follows: Tumor volume=(a×b^2)/2, where a and b represented the length and width of the tumor.
(§3) The percentage of tumor growth inhibition was calculated as follows: Tumor growth inhibition (%)=(1−T/C)×100, where T was the final volume of the tumor in the test compound group and C was the final volume of the tumor in the solvent control group.

[3] = test system: human gastric cancer HGC-27 subcutaneous xenografts; experiment: Xenograft efficacy in nude mice, HGC-27; format: in vivo
Experimental: as §1, with “gastric” for “lung”, “HGC-27” for “NCI-H460”, “When the tumor grew to a diameter of about 1 cm, it was removed under septic condition and cut into pieces of 1 mm×1 mm which was implanted into the back of the nude mice.” left out, “0).” for “1).”, “20” for “16”, “rate.” for “rate. The results were shown in Table 3, Table 4, FIG. 1 and FIG. 2.”
as §2, §3
The percentage of tumor regression was calculated by 100×(final tumor volume-initial tumor volume)/initial tumor volume.

Chain of PI3Kα (P42336 whole entry): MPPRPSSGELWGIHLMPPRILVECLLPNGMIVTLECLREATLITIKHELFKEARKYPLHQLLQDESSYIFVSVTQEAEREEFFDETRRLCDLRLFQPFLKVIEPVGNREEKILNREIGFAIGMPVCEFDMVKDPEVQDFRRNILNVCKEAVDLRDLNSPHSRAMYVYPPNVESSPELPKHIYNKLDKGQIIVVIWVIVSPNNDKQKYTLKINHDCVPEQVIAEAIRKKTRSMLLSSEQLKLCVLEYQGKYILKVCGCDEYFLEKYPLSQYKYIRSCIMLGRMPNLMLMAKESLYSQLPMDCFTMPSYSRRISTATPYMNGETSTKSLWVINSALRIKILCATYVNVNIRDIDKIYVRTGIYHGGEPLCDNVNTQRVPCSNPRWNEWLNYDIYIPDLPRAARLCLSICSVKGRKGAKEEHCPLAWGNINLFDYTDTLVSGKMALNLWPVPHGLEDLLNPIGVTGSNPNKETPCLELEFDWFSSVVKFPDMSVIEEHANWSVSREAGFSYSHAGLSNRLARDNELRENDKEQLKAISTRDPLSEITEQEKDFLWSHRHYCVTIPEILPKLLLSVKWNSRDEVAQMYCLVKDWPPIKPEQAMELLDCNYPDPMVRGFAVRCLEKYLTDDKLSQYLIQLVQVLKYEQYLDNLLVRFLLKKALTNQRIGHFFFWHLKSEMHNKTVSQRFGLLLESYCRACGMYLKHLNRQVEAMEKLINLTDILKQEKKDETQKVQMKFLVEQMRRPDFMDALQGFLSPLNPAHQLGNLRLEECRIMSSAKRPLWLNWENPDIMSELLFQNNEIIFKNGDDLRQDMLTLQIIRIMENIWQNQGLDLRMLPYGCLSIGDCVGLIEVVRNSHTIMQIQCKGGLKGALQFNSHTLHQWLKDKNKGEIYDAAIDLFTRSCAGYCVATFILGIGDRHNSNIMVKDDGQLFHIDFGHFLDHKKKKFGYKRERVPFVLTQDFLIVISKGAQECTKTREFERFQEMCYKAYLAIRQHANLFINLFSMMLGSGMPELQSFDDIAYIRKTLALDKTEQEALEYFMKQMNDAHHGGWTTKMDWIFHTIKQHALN
Chain of PI3Kα (P27986 whole entry partner): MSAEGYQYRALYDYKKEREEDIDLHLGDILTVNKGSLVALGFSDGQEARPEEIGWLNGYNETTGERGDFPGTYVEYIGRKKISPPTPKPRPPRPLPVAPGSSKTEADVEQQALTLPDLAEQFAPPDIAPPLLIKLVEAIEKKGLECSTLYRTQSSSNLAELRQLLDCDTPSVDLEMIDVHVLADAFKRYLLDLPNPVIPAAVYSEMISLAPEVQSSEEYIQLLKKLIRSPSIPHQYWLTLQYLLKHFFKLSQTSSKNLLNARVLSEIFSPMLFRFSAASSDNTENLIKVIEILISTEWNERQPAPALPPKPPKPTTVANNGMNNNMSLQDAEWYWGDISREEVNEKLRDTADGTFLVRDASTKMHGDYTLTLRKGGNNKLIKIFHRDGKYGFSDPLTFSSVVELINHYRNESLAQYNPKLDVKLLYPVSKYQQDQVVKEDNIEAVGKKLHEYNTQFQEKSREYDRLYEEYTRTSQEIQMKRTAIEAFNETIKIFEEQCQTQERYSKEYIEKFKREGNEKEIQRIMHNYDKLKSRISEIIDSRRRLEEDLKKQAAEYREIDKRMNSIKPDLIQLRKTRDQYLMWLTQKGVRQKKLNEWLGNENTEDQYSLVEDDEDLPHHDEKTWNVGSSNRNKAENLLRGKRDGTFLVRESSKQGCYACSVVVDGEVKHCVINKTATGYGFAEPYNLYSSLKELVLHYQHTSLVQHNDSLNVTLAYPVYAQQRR

SMILES: COc1ncc(-c2cc(OC3CCOCC3)c3ncnc(C)c3c2)cc1NS(=O)(=O)c1ccc(F)cc1F [Example 44, N-(2-methoxy-5-(4-methyl-8-((tetrahydro-2H-pyran-4-yl)oxy)quinazolin-6-yl)pyridin-3-yl)-2,4-difluorobenzenesulfonamide]
- IC50 [1]: 29 nM
- IC50 (PI3Kα): 0.65 nM
- inhibitory effect against growth of NCI-H460 subcutaneous xenografts (in words) [2]: significant inhibitory effects
- Growth inhibition ([2]; 1 mg/kg/day orally): 60.3%

SMILES: COc1ncc(-c2cc(O[C@@H]3CCOC3)c3nc(N)nc(C)c3c2)cc1NS(=O)(=O)c1ccc(F)cc1F [Example 9, (R)—N-(5-(2-amino-4-methyl-8-((tetrahydrofuran-3-yl)oxy)quinazolin-6-yl)-2-methoxypyridin-3-yl)-2,4-difluorobenzenesulfonamide]
- IC50 [1]: 93 nM
- IC50 (PI3Kα): 0.86 nM
- inhibitory effect against growth of NCI-H460 subcutaneous xenografts (in words) [2]: significant inhibitory effects
- Growth inhibition ([2]; 5 mg/kg/day orally): 39.2%
- Growth inhibition ([2]; 10 mg/kg/day orally): 56.3%
- Growth inhibition ([2]; 20 mg/kg/day orally): 77.0%

SMILES: COc1ncc(-c2cc(OCC3CCOC3)c3ncnc(C)c3c2)cc1NS(=O)(=O)c1ccc(F)cc1F (stereo not drawn) [Example 61, N-(2-methoxy-5-(4-methyl-8-((tetrahydrofuran-3-yl)methoxy)quinazolin-6-yl)pyridin-3-yl)-2,4-difluorobenzenesulfonamide]
- IC50 [1]: 45 nM
- IC50 (PI3Kα): 1 nM

SMILES: COc1ncc(-c2cc(OC)c3ncnc(C)c3c2)cc1NS(=O)(=O)c1ccc(F)cc1F [Example 72, N-(2-methoxy-5-(8-methoxy-4-methylquinazolin-6-yl)pyridin-3-yl)-2,4-difluorobenzenesulfonamide]
- IC50 [1]: 500 nM
- IC50 (PI3Kα): 0.7 nM

SMILES: CNc1nc(C)c2cc(-c3cnc(OC)c(NS(=O)(=O)c4ccc(F)cc4F)c3)cc(O[C@@H]3CCOC3)c2n1 [Example 32, (R)—N-(2-methoxy-5-(4-methyl-2-(methylamino)-8-((tetrahydrofuran-3-yl)oxy)quinazolin-6-yl)pyridin-3-yl)-2,4-difluorobenzenesulfonamide]
- IC50 (PI3Kα): 0.82 nM
- inhibitory effect on growth of HGC-27 subcutaneous xenografts (in words) [3]: significant inhibitory effect
- Growth inhibition ([3]; HGC-27 xenograft, 5 mg/kg/day orally, 20 days of dosing): 76.9%
- Regression ([3]; HGC-27 xenograft, 10 mg/kg/day orally, 20 days of dosing): 70.5%

SMILES: COc1ncc(-c2cc(OCC3(C)COC3)c3ncnc(C)c3c2)cc1NS(=O)(=O)c1ccc(F)cc1F [Example 59, N-(2-methoxy-5-(4-methyl-8-((3-methyloxetan-3-yl)methoxy)quinazolin-6-yl)pyridin-3-yl)-2,4-difluoro-benzenesulfonamide]
- IC50 [1]: 17 nM
- IC50 (PI3Kα): 0.74 nM

SMILES: COc1ncc(-c2cc(O[C@@H]3CCOC3)c3nc(N)nc(C)c3c2)cc1NS(C)(=O)=O [Example 10, (R)—N-(5-(2-amino-4-methyl-8-((tetrahydrofuran-3-yl)oxy)quinazolin-6-yl)-2-methoxypyridin-3-yl)methanesulfonamide]
- IC50 [1]: 2200 nM
- IC50 (PI3Kα): 3.8 nM

SMILES: COc1ncc(-c2cc(OC3CCCCC3)c3nc(N)nc(C)c3c2)cc1NS(=O)(=O)c1ccc(F)cc1F [Example 22, N-(5-(2-amino-8-(cyclohexyloxy)-4-methylquinazolin-6-yl)-2-methoxypyridin-3-yl)-2,4-difluorobenzenesulfonamide]
- IC50 [1]: 96 nM
- IC50 (PI3Kα): 0.6 nM

SMILES: CNc1nc(C)c2cc(-c3cnc(OC)c(NS(=O)(=O)c4ccc(F)cc4F)c3)cc(OCC3CCOCC3)c2n1 [Example 36, N-(2-methoxy-5-(4-methyl-2-(methylamino)-8-((tetrahydro-2H-pyran-4-yl)methoxy)quinazolin-6-yl)pyridin-3-yl)-2,4-difluoro-benzenesulfonamide]
- IC50 [1]: 400 nM
- IC50 (PI3Kα): 2.2 nM

SMILES: COc1ncc(-c2cc(OC3CCCCC3)c3ncnc(C)c3c2)cc1NS(=O)(=O)c1ccc(F)cc1F [Example 55, N-(5-(8-(cyclohexyloxy)-4-methylquinazolin-6-yl)-2-methoxypyridin-3-yl)-2,4-difluorobenzenesulfonamide]
- IC50 [1]: 97 nM
- IC50 (PI3Kα): 1.7 nM

SMILES: COc1ncc(-c2cc(OCCN3CCCC3)c3ncnc(C)c3c2)cc1NS(=O)(=O)c1ccc(F)cc1F [Example 63, N-(2-methoxy-5-(4-methyl-8-(2-(pyrrolidin-1-yl)ethoxy)quinazolin-6-yl)pyridin-3-yl)-2,4-difluorobenzenesulfonamide]
- IC50 [1]: 2100 nM
- IC50 (PI3Kα): 10 nM

SMILES: COc1ncc(-c2cc(OC(F)F)c3ncnc(C)c3c2)cc1NS(=O)(=O)c1ccc(F)cc1F [Example 71, N-(5-(8-(difluoromethoxy)-4-methylquinazolin-6-yl)-2-methoxypyridin-3-yl)-2,4-difluorobenzenesulfonamide]
- IC50 [1]: 1000 nM
- IC50 (PI3Kα): 1.9 nM

SMILES: Cc1ncc(-c2cc(OC3CCOCC3)c3ncnc(C)c3c2)cc1NS(=O)(=O)c1ccc(F)cc1F [Example 74, N-(2-methyl-5-(4-methyl-8-((tetrahydro-2H-pyran-4-yl)oxy)quinazolin-6-yl)pyridin-3-yl)-2,4-difluorobenzenesulfonamide]
- IC50 [1]: 870 nM
- IC50 (PI3Kα): 1.1 nM

SMILES: COc1ncc(-c2cc(OC3CCCC3)c3ncnc(C)c3c2)cc1NS(=O)(=O)c1ccc(F)cc1F [Example 56, N-(5-(8-(cyclopentyloxy)-4-methylquinazolin-6-yl)-2-methoxypyridin-3-yl)-2,4-difluorobenzenesulfonamide]
- IC50 [1]: 73 nM
- IC50 (PI3Kα): 0.92 nM

SMILES: COc1ncc(-c2cc(OCC3CC3)c3ncnc(C)c3c2)cc1NS(=O)(=O)c1ccc(F)cc1F [Example 68, N-(5-(8-(cyclopropylmethoxy)-4-methylquinazolin-6-yl)-2-methoxypyridin-3-yl)-2,4-difluorobenzenesulfonamide]
- IC50 [1]: 340 nM
- IC50 (PI3Kα): 1.6 nM

SMILES: COc1ncc(-c2cc(OC3CCC(F)(F)CC3)c3ncnc(C)c3c2)cc1NS(=O)(=O)c1ccc(F)cc1F [Example 57, N-(5-(8-((4,4-difluorocyclohexyl)oxy)-4-methylquinazolin-6-yl)-2-methoxypyridin-3-yl)-2,4-difluorobenzenesulfonamide]
- IC50 [1]: 450 nM
- IC50 (PI3Kα): 1.7 nM

SMILES: Cc1ncnc2c(OC3CCOCC3)cc(-c3cnc(Cl)c(NS(=O)(=O)c4ccc(F)cc4)c3)cc12 [Example 73, N-(2-chloro-5-(4-methyl-8-((tetrahydro-2H-pyran-4-yl)oxy)quinazolin-6-yl)pyridin-3-yl)-4-fluorobenzenesulfonamide]
- IC50 [1]: 740 nM
- IC50 (PI3Kα): 1.3 nM
